Counter-ions that a name gives are not always drawn.
What was measured:
[1] = tested on: vincristine resistant murine leukemia P388/VCR; assay: In vivo evaluation of MDR-1 reversal agents against vincristine resistant murine leukemia P388/VCR implanted IP in CDF1 mice; details: days 1-7, IP; for % ILS: vs vincristine alone
Method: Tumor cell ascites are harvested 5-7 days later. For drug testing, groups of 10-15 CDF1 mice (DBA/2×Balb/cF1 hybrids; Charles River Laboratories, Inc) are injected IP with 0.5 ml of diluted ascitic fluid containing 1×10^6 viable P388/VCR tumor cells. […] Drugs are administered once daily, by the IP, intravenous (IV) or oral route, starting one day after tumor implantation and using a variety of treatment schedules. Mice are weighed periodically, survival is recorded for 30 days post tumor implantation, and Mean survival times are calculated for all groups of mice. Statistical analysis of Mean survival times is carried out using the Student t-test.

[2] = tested on: human epidermoid carcinoma KB/8.5; assay: In vivo evaluation of MDR-1 reversal agents against human epidermoid carcinoma KB/8.5 implanted SC in athymic nude mice; parameters: species or system human (tumor in athymic nude mice)
Method: The multiple drug resistant human epidermoid carcinoma KB/8.5 is propagated in medium containing colchicine (10 nanograms/ml) to maintain drug resistance. Colchicine is removed from the medium, for two cell passages, prior to subcutaneous (SC) implant of 8×10^6 KB/8.5 tumor cells into athymic "nude" mice (Harlan Sprague Dawley). […] Individual mouse tumor mass and mean tumor mass for each treatment group is determined on Day +14 and Day +21 of the test period. For each treatment group, the Relative Tumor Growth, RTG, is calculated as follows: [formula]
Statistical analysis of Log Relative Tumor Growth is carried out using the Student t-test. Transformation of the data from absolute mean tumor mass (mgs tumor mass) to Log Relative Tumor Growth prior to statistical analysis has two beneficial effects:
1) it corrects the data for differences in mean tumor mass of the different treatment groups at the start of the test period (Day 0); and
2) the Log transformation of the data more adequately reflects the exponential growth pattern of the SC tumors and makes the use of the Student t-test more appropriate.

[3] = vincristine 0.2 + compound 6.3 mg/kg
[4] = vincristine 0.2 + compound 25 mg/kg
[5] = vincristine 0.2 + compound 50 mg/kg
[6] = doxorubicin 8 mg/kg IV + compound 25 mg/kg/dose SC at -2 h and +2 h
[7] = doxorubicin 8 mg/kg IV + compound 50 mg/kg/dose SC at -2 h and +2 h
[8] = doxorubicin 8 mg/kg IV + compound 100 mg/kg/dose SC at -2 h and +2 h
[9] = doxorubicin 8 mg/kg IV + compound 150 mg/kg/dose SC at -2 h and +2 h
[10] = doxorubicin 8 mg/kg IV + compound […] SC at -2 h and +2 h
[11] = doxorubicin 8 mg/kg IV + compound 200 mg/kg/dose SC at -2 h and +2 h
[12] = doxorubicin 8 mg/kg IV + compound 200 mg/kg/dose SC x2

Compound | Relative Tumor Growth Day 21 [2, 6] | Relative Tumor Growth Day 21 [2, 7] | Relative Tumor Growth Day 21 [2, 8] | Relative Tumor Growth Day 21 [2, 10] | Relative Tumor Growth Day 21 [2, 11] | other results
COc1ccc(C(C#N)(CCN2CCc3cc(OC)c(OC)cc3C2)Sc2ccc(C)cc2)cc1OC (stereo not drawn) [Example 9, α-(3,4-Dimethoxyphenyl)-3,4-dihydro-6,7-dimethoxy-α-[(4-methylphenyl)thio]-2(1H]-isoquinolinebutanenitrile] |  |  |  |  |  | MST [1, 3]: 16.4 days; % ILS [1, 3]: +10%
COC(=O)C(CCCN1CCc2cc(OC)c(OC)cc2C1)(Sc1ccc(C)cc1)c1ccc(OC)c(OC)c1 (stereo not drawn) [Example 12, α-(3,4-Dimethoxyphenyl)-3,4-dihydro-6,7-dimethoxy-α-[(4-methylphenyl)thio]-2(1H)-isoquinolinepentanoic acid methyl ester] |  |  |  |  |  | MST [1, 4]: 16.5 days; MST [1, 5]: 16.7 days; % ILS [1, 4]: +9%; % ILS [1, 5]: +11%
COc1ccc(C(C#N)(CCCCCN2CCc3ccccc3C2)Sc2ccc(C)cc2)cc1OC (stereo not drawn) [Example 16, α-(3,4-Dimethoxyphenyl)-3,4-dihydro-α-[(4-methylphenyl)thio]-2(1H)-isoquinoline-2-heptanenitrile] |  |  |  |  |  | MST [1, 4]: 16.8 days; % ILS [1, 4]: +11%
COc1ccc(C(C#N)(CCCCCCCCN2CCc3cc(OC)c(OC)cc3C2)Sc2ccc(C)cc2)cc1OC (stereo not drawn) [Example 20, α-(3,4-Dimethoxyphenyl]-3,4-dihydro-6,7-dimethoxy-α-[(4-methylphenyl)thio]-2(1H)-isoquinolinedecanenitrile] |  |  |  |  |  | MST [1, 3]: 13.5 days; % ILS [1, 3]: +8%
COc1ccc(C(C#N)(CCCCCN2Cc3cc(OC)c(OC)cc3C2)Sc2ccc(C)cc2)cc1OC.Cl (stereo not drawn) [Example 27, α-(3,4-Dimethoxyphenyl)-1,3-dihydro-5,6-dimethoxy-α-[(4-methylphenyl)thio]-2H-isoindole-2-heptanenitrile hydrochloride] | 10.30 | 9.55 | 6.39 | 9.66 |  | Relative Tumor Growth Day 14 [2, 9]: Toxic; Relative Tumor Growth Day 21 [2, 9]: Toxic
COc1ccc(C(C#N)(CCCCCN2CCc3cc(OC)c(OCCCl)cc3C2)Sc2ccc(C)cc2)cc1OC (stereo not drawn) [Example 32, 7-(2-Chloroethoxy)-α-(3,4-dimethoxyphenyl)-3,4-dihydro 6-methoxy-α-[(4-methylphenyl)thio]-2(1H)-isoquinoline heptanenitrile] | 11.30 |  |  | 19.93 |  | 
COc1ccc(C(CCCCCN2CCc3cc4c(cc3C2)OCO4)Sc2ccc(C)cc2)cc1OC (stereo not drawn) [Example 47] | 9.73 | 16.54 | 10.09 | 17.53 | 11.04 | 
COc1ccc(C(CCCCCCN2Cc3cc(OC)c(OC)cc3C2)Sc2ccc(C)cc2)cc1OC (stereo not drawn) [Example 49, 2-[7-(3,4-Dimethoxyphenyl]-7-[(4-methylphenyl]thio]-beptyl]-2,3-dihydro-5,6-dimethoxy-1H-isotndole] | 5.04 |  |  | 6.41 |  | 
COc1ccc(C(CCCCCCN2CCc3cc(OC)c(OC)cc3C2)Sc2ccc(C)cc2)cc1OC (stereo not drawn) [Example 50, 2-[7-(3,4-Dimethoxyphenyl)-7-[(4-methylphenyl)thio]-heptyl]-1,2,3,4-tetrahydro-6,7-dimethoxyisoquinoline] | 7.86 | 8.76 | 7.08 | 10.30 | 6.87 | 
COc1ccc(CC2c3cc(OC)c(OC)cc3CCN2CCCCCC(C#N)(Sc2ccc(C)cc2)c2ccc(OC)c(OC)c2)cc1OC (stereo not drawn) [Example 55, α-(3,4-Dimethoxyphenyl)-1-[(3,4-dimethoxyphenyl)-methyl]-3,4-dihydro-6,7-dimethoxy-α-[(4-methylphenyl)-thio]-2(1H)-isoquinolineheptanenitrile] |  | 12.20 | 12.37 |  | 7.15 | 
COc1ccc(C(CCCCCN2CCc3cc(OC)c(OC)cc3C2)SC2CCCCC2)cc1OC (stereo not drawn) [Example 61, 2-[6-(Cyclohexylthio)-6-(3,4-dimethoxyphenyl)hexyl]-1,2,3,4-tetrahydro-6,7-dimethoxyisoquinoline] |  | 8.66 | 6.86 | 8.88 |  | 
COc1ccc(C(C#N)(CCCCCN2CCc3cc(OC)c(OC)cc3C2)SC2CCCCC2)cc1OC (stereo not drawn) [Example 62, α-(Cyclohexylthio)-α-(3,4-dimethoxyphenyl)-3,4-dihydro6,7-dimethoxy-2(1H)-isoquinolineheptane nitrile] |  | 9.47 | 6.08 | 10.17 |  | toxicity remark (tox), Day 14 [2, 12]: tox; toxicity remark (tox), Day 21 [2, 12]: tox
COc1ccc(C(CCCCCN2CCc3cc(OC)c(OC)cc3C2)SC(C)(C)C)cc1OC (stereo not drawn) [Example 66, 2-[6-(3,4-Dimethoxyphenyl)-6[(1,1-dimethylethyl)thio]hexyl]-1,2,3,4-tetrahydro-6,7-dimethoxyisoquinoline] |  |  | 8.17 |  | 7.07 | 
COc1ccc(C(CCCCCCN2CCc3cc(OC)c(OC)c(OC)c3C2)Sc2ccc(C)cc2)cc1OC (stereo not drawn) [Example 67, 2-[7-(3,4-Dimethoxyphenyl)-7-[(4-methylphenyl)thio]-heptyl]-1,2,3,4-tetrahydro-6,7,8-trimethoxyisoquinoline] |  | 11.52 | 7.76 | 9.81 | 8.55 | 
COc1ccc(C(CCCCCCN2CCc3cc(OC)c(OC)cc3C2)Sc2ccc(C)cc2)cc1O (stereo not drawn) [Example 72, 5-[7-(3,4-Dihydro-6,7-dimethoxy-2(1H)-isoquinolinyl)-1[(4-methylphenyl)thio]heptyl]-2-methoxyphenol] |  |  |  | 9.58 |  | 
COc1cc2c(cc1OC)CN(CCCCCCC(Sc1ccc(C)cc1)c1ccc(OC)c(OCCn3ccnc3)c1)CC2 (stereo not drawn) [Example 74] |  |  |  |  |  | Relative Tumor Growth Day 21 ([2]; doxorubicin 8 mg/kg IV + compound 25 mg/kg/dose SC at -2 h and +2 h, listed as Ex-74): 9.11; Relative Tumor Growth Day 21 ([2]; doxorubicin 8 mg/kg IV + compound 50 mg/kg/dose SC at -2 h and +2 h, listed as Ex-74): 9.18; Relative Tumor Growth Day 21 ([2]; doxorubicin 8 mg/kg IV + compound […] SC at -2 h and +2 h, listed as Ex-74): 9.00
COc1cc2c(cc1OC)CN(CCCCCCC(Sc1ccc(C)cc1)c1ccc(OC)c(OCCn3ccnc3)c1)CC2 (stereo not drawn) [Example 75, 1,2,3,4-Tetrahydro-2-[7-[3-[2-(1H-imidazol-1-yl)-ethoxy]-4-methoxyphenyl]-7-[(4-methylphenvl]thio]-heptyl-6,7-dimethoxyisoquinolinedihydrochloride] |  |  |  |  |  | Relative Tumor Growth Day 21 ([2]; doxorubicin 8 mg/kg IV + compound 25 mg/kg/dose SC at -2 h and +2 h, listed as Ex-75, dihydrochloride): 11.05; Relative Tumor Growth Day 21 ([2]; doxorubicin 8 mg/kg IV + compound 50 mg/kg/dose SC at -2 h and +2 h, listed as Ex-75, dihydrochloride): 9.12; Relative Tumor Growth Day 21 ([2]; doxorubicin 8 mg/kg IV + compound 100 mg/kg/dose SC at -2 h and +2 h, listed as Ex-75, dihydrochloride): 6.74; Relative Tumor Growth Day 21 ([2]; doxorubicin 8 mg/kg IV + compound 200 mg/kg/dose SC at -2 h and +2 h, listed as Ex-75, dihydrochloride): 7.70; Relative Tumor Growth Day 21 ([2]; doxorubicin 8 mg/kg IV + compound […] SC at -2 h and +2 h, listed as Ex-75, dihydrochloride): 14.21
CCC(CCCCCN1CCc2cc(OC)c(OC)cc2C1)(Sc1ccc(C)cc1)c1ccc(OC)c(OC)c1 (stereo not drawn) [Example 78, 2-[6-(3,4-Dimethoxyphenyl)-6-[(4-methylphenyl)thio]-octyl]-1,2,3,4-tetrahydro-6,7-dimethoxyisoquinoline] | 10.14 |  |  | 10.27 |  | 
COc1ccc(C(C#N)(CCCCCN2Cc3cc(Cl)c(Cl)cc3C2)Sc2ccc(C)cc2)cc1OC (stereo not drawn) [Example 81] |  |  |  | 9.52 |  | 
COc1cc2c(cc1OC)CN(CCCCCC(Sc1ccc(C)cc1)c1ccc3c(c1)OCO3)CC2 (stereo not drawn) [Example 89] | 8.02 | 9.40 | 11.04 | 10.70 | 6.04 | 
COc1cc2c(cc1OC)CN(CCCCCC(Sc1ccc(C)cc1)c1ccc(OC(F)(F)F)cc1)CC2 (stereo not drawn) [Example 92, 1,2,3,4-Tetrahydro-6,7-dimethoxy-2-[6-[(4-methyl-phenyl]thio]-6-[trifluoromethoxy)phenyl]hexylisoquinoline] | 12.05 | 11.75 | 10.48 | 12.75 | 8.71 | 

From patent US5639887A, “MDR reversal agents” (priority 1995, dated 1997)
